Measured values as given in PMC9077470 (RSC Advances, 2018).
In brackets after ≈: the same amount, converted by molar mass. Entries after “also recorded” stand apart in the source; their conditions may differ.

What was measured:
[1] = Partition coefficients in n-octanol/phosphate buffer (pH 7.4); format: physicochemical; conditions: means ± SD, n = 3
Description: The phosphate buffer and octanol were mutually saturated at 20–22 °C before use. Samples were dissolved in the aqueous phase and the n-octanol/phosphate buffer mixtures were shaken for 24 h to reach a distribution equilibrium. The volumes of each phase were chosen so that the solute concentration in the aqueous phase, before and after distribution, could readily be measured using HPLC method. The partition coefficients (P) were calculated from the following equation: [drawing 1] where Ci and Cw represent the solute concentrations in the aqueous buffer phase before and after distribution, respectively, Vw represents the volume of the aqueous phase, and Vo is the volume of the octanol phase.[16]

[2] = Aqueous solubility (equilibrium, distilled water); format: physicochemical; conditions: 25 °C, thermodynamic from solid, 25 ± 2 °C, means ± SD, n = 3, read-out: S (aqueous solubility)
Description: The mixtures were placed in an ultrasonic water bath for 10 min and then shaken for 24 h to establish a saturation equilibrium. Upon filtration, the filtrate was diluted with an appropriate amount of water and the mixture was analyzed by HPLC, the concentration of each compound in its saturated solution was calculated.

[3] = In vitro incubation with stomach contents of rats; format: in vitro ADME; conditions: rat stomach contents homogenate, pH 1.2, 37 °C, after 2 h of incubation
Description: (§1) After anesthetized with diethyl ether, rats were sacrificed and their contents of stomach and small intestine were collected and homogenized respectively, the homogenate was diluted with buffer solution (pH 1.2 for stomach contents, pH 6.8 for small intestine contents) to 20% (w/v). […] After 0.25, 0.5, 1.0, 1.5, 2.0, 3.0 and 4.0 h of incubation, 200 μL of samples were collected and replaced with the same volume of blank homogenate, then samples were centrifuged at 13 000 rpm for 5 min, filtered with membrane filter, and analyzed by HPLC. The residual contents of each prodrug in homogenate were calculated and the hydrolysis curves were drawn.

[4] = In vitro incubation with small intestine contents of rats; format: in vitro ADME; conditions: rat small intestine contents homogenate, pH 6.8, 37 °C, after 4 h of incubation
Description: as §1

[5] = tested on: TNBS-induced experimental colitis; assay: TNBS-induced colitis: body weight, survival rates, overall effect; format: in vivo, mice; conditions: for body weight of mice / therapeutic effects on the TNBS-induced UC (overall): TNBS colitis mice; for body weight of mice: once daily 5 days, equivalent to 100 mg kg^−1 5-ASA; for therapeutic effects on the TNBS-induced UC (overall): Ols-DB as enema, others i.g.; for ameliorative effects on TNBS-induced colitis (overall), compared with positive control: vs positive control, oral administration
Description: Colitis was induced according to the previous study.[18,19] Briefly, after 12 h of fasting, mice were anesthetized with intraperitoneal pentobarbital sodium (35 mg kg^-1) before the induction of colitis. 0.1 mL of 50% (v/v) ethanol contained 2.5% (v/v) TNBS was instilled into the colon 3.5-4 cm from the anus by a gavage needle. The mice were kept in a head-down position for 30 s to prevent leakage of the intracolonic instillation. Mice in the control group received normal saline instead of TNBS solution, a physical mixture of 5-ASA and sodium butyrate was used as the positive control. […] The treatments were given once daily for 5 continuous days starting 24 hours after the induction of colitis. After the induction of colitis, the body weight of each mice was recorded daily, and the curves of weight changes for each group were drawn to evaluate the TNBS-induced colitis. Meanwhile, the death of mice in each group was recorded daily and the final survival rates of mice were calculated.

[6] = tested on: TNBS-induced experimental colitis; assay: TNBS-induced colitis: colon index and colonic damage score (CDS); format: in vivo, mice; conditions: for colon index, compared with positive control: vs positive control (5-ASDB p < 0.05, Ols-DBP p < 0.01); for CDS, compared with positive control: vs positive control, p < 0.05
Description: Colitis was induced according to the previous study.[18,19] Briefly, after 12 h of fasting, mice were anesthetized with intraperitoneal pentobarbital sodium (35 mg kg^-1) before the induction of colitis. 0.1 mL of 50% (v/v) ethanol contained 2.5% (v/v) TNBS was instilled into the colon 3.5-4 cm from the anus by a gavage needle. The mice were kept in a head-down position for 30 s to prevent leakage of the intracolonic instillation. Mice in the control group received normal saline instead of TNBS solution, a physical mixture of 5-ASA and sodium butyrate was used as the positive control. […] The treatments were given once daily for 5 continuous days starting 24 hours after the induction of colitis. At the end of the experiment, all mice were sacrificed and their entire colons were excised, opened longitudinally and washed carefully with normal saline. After dried with filter papers, colons were weighted and the length of colons was measured and recorded. The colon index was calculated as follows:Colon index (g dm^-1) = weight of colon/length of colon The colonic damage score (CDS) of mice in each group was evaluated according to the following criteria: 0, no ulcer and colitis; 1, no ulcer, local congestion; 2, ulcers, no local congestion; 3, ulcer and colitis at only one site; 4, ulcer and colitis at more than one sites; 5, over 2 cm of ulcer surface.[24]

[7] = tested on: MPO activity in colonic tissues; assay: TNBS-induced colitis: MPO activity in colonic tissues; format: in vivo, mice; conditions: for MPO activity in colonic tissues: vs TNBS group, p < 0.01; for MPO activity, compared with positive control: vs positive control
Description: Colitis was induced according to the previous study.[18,19] Briefly, after 12 h of fasting, mice were anesthetized with intraperitoneal pentobarbital sodium (35 mg kg^-1) before the induction of colitis. 0.1 mL of 50% (v/v) ethanol contained 2.5% (v/v) TNBS was instilled into the colon 3.5-4 cm from the anus by a gavage needle. The mice were kept in a head-down position for 30 s to prevent leakage of the intracolonic instillation. Mice in the control group received normal saline instead of TNBS solution, a physical mixture of 5-ASA and sodium butyrate was used as the positive control. […] The treatments were given once daily for 5 continuous days starting 24 hours after the induction of colitis. […] Samples were freeze-thawed three times, after which sonication was repeated. Homogenates were then centrifuged at 13 000 rpm for 30 min and MPO was extracted from the resulting supernatant.[25] MPO activity was measured by the assay kit according to its provider's instructions.

[8] = tested on: SOD, MDA, GSH, GSH-Px in colonic tissues; assay: TNBS-induced colitis: levels of SOD, MDA, GSH and GSH-Px in colonic tissues; format: in vivo, mice; conditions: for GSH-Px activities in the colon / MDA levels in the colon / SOD activities in the colon / levels of GSH in the colon: vs TNBS group; for GSH-Px activities in the colon / MDA levels in the colon / SOD activities in the colon / levels of GSH in the colon / effect on decreasing the MDA level, compared with positive control: p < 0.01; for effect on increasing GSH, compared with positive control / effect on increasing GSH-Px, compared with positive control / effect on increasing SOD, compared with positive control / effect on decreasing the MDA level, compared with positive control: vs positive control
Description: Colitis was induced according to the previous study.[18,19] Briefly, after 12 h of fasting, mice were anesthetized with intraperitoneal pentobarbital sodium (35 mg kg^-1) before the induction of colitis. 0.1 mL of 50% (v/v) ethanol contained 2.5% (v/v) TNBS was instilled into the colon 3.5-4 cm from the anus by a gavage needle. The mice were kept in a head-down position for 30 s to prevent leakage of the intracolonic instillation. Mice in the control group received normal saline instead of TNBS solution, a physical mixture of 5-ASA and sodium butyrate was used as the positive control. […] The treatments were given once daily for 5 continuous days starting 24 hours after the induction of colitis. Colon tissue samples were homogenized with normal saline, the homogenate (10%, w/w) was centrifuged at 13 000 rpm for 15 min, and the resulting supernatant was diluted to 1% (w/w) for further assay. The protein levels of the colon homogenate were detected by a BCA protein assay kit. Then the activities of SOD and GSH-Px, and the levels of MDA and GSH of samples in each group were measured by the assay kits according to the provider's instructions.

Compound: CCCC(=O)OCC(COC(=O)CCC)OC(=O)c1cc(N)ccc1O [5-ASDB, 2-(1,3-dibutyroxypropyl)-5-aminosalicylate]
- P (partition coefficient) [1]: 3.81 ± 0.35
- logP at 24 h [1]: 0.58 ± 0.04
- solubility at 24 h [2]: 80 ± 20 mg/mL (≈ 218 mM)
- residual content of prodrug in stomach contents [3]: 63.3%
- residual content of prodrug in small intestine contents [4]: 94.7%
- body weight of mice [5]: slight weight loss at first and gained gradually from the 2nd day
- therapeutic effects on the TNBS-induced UC (overall) [5]: certain therapeutic effects
- ameliorative effects on TNBS-induced colitis (overall), compared with positive control [5]: significantly greater than the positive control
- colon index, compared with positive control [6]: significantly better than the positive control
- CDS, compared with positive control [6]: significantly greater than the positive control
- MPO activity in colonic tissues [7]: significantly decreased
- MPO activity, compared with positive control [7]: significantly better than the positive control
- GSH-Px activities in the colon [8]: increased
- MDA levels in the colon [8]: significantly decreased
- SOD activities in the colon [8]: increased
- levels of GSH in the colon [8]: significantly higher
- effect on increasing GSH, compared with positive control [8]: significantly greater effects
- effect on increasing GSH-Px, compared with positive control [8]: significantly greater effects
- effect on increasing SOD, compared with positive control [8]: significantly greater effects
- effect on decreasing the MDA level, compared with positive control [8]: significantly greater effects

Compound: CCCC(=O)Oc1ccc(N=Nc2ccc(OC(=O)CCC)c(C(=O)O)c2)cc1C(=O)O [Ols-DB, 3,3′-azobis(6-hydroxybenzoicacid)dibutyrate]
- P (partition coefficient) [1]: 2.10 ± 0.24
- logP at 24 h [1]: 0.32 ± 0.05
- solubility at 24 h [2]: 270 ± 30 mg/mL (≈ 610 mM)
- residual content of prodrug in stomach contents [3]: almost completely decomposed
- residual content of prodrug in small intestine contents [4]: 5.5%
- body weight of mice [5]: slight weight loss at first and gained gradually from the 2nd day
- therapeutic effects on the TNBS-induced UC (overall) [5]: just as effective as 5-ASDB and Ols-DBP; also recorded: certain therapeutic effects
- CDS, compared with positive control [6]: significantly greater than the positive control
- MPO activity in colonic tissues [7]: significantly decreased
- MPO activity, compared with positive control [7]: significantly better than the positive control
- GSH-Px activities in the colon [8]: increased
- MDA levels in the colon [8]: significantly decreased
- SOD activities in the colon [8]: increased
- levels of GSH in the colon [8]: significantly higher

Compound: CCCC(=O)OCC(COC(=O)CCC)OC(=O)c1cc(N=Nc2ccc(O)c(C(=O)OC(COC(=O)CCC)COC(=O)CCC)c2)ccc1O [Ols-DBP]
- P (partition coefficient) [1]: 2.94 ± 0.37
- logP at 24 h [1]: 0.47 ± 0.06
- solubility at 24 h [2]: 190 ± 40 mg/mL (≈ 260 mM)
- residual content of prodrug in stomach contents [3]: 57.5%
- residual content of prodrug in small intestine contents [4]: 90.4%
- body weight of mice [5]: slight weight loss at first and gained gradually from the 2nd day
- therapeutic effects on the TNBS-induced UC (overall) [5]: certain therapeutic effects
- ameliorative effects on TNBS-induced colitis (overall), compared with positive control [5]: significantly greater than the positive control
- colon index, compared with positive control [6]: significantly better than the positive control
- CDS, compared with positive control [6]: significantly greater than the positive control
- MPO activity in colonic tissues [7]: significantly decreased
- MPO activity, compared with positive control [7]: significantly better than the positive control
- GSH-Px activities in the colon [8]: increased
- MDA levels in the colon [8]: significantly decreased
- SOD activities in the colon [8]: increased
- levels of GSH in the colon [8]: significantly higher
- effect on increasing GSH, compared with positive control [8]: significantly greater effects
- effect on increasing GSH-Px, compared with positive control [8]: significantly greater effects
- effect on increasing SOD, compared with positive control [8]: significantly greater effects
- effect on decreasing the MDA level, compared with positive control [8]: significantly greater effects
